Results: US20180132483A1, “Method of Controlling Phytoparasitic Pests, Agrochemical Composition and Use Thereof” (priority 2016, published 2018)

Test system: soil Fusarium sp.
Assay: Activity against soil Fusarium sp.

CC(=O)O.CCCCCCCCCCCCNC(=N)N [dodine, 1-dodecylguanidinium acetate]
Activity against soil Fusarium sp.: active
